Experimental data as given in article PMC4163382, “Symbiotic Plant Peptides Eliminate Candida albicans Both In Vitro and in an Epithelial Infection Model and Inhibit the Proliferation of Immortalized Human Cells” (BioMed Research International, 2014).
Peptide text beside a SMILES is read from it.

Legend:
C. albicans WO-1 cells [1] = experiment: Cell permeability assay (calcein release); format: cell-based, Candida albicans; conditions: calcein-loaded C. albicans WO-1, 10 mM potassium phosphate buffer pH 7.0, peptide 50 μg/mL, fluorescence 485/530 nm
Description: Cell permeability was monitored by the release of the intracellularly accumulated dye calcein. Overnight C. albicans WO-1 cells were washed twice with and resuspended in 10 mM potassium phosphate buffer (pH = 7.0) at a concentration of 10^7 cells mL^−1. Cells were loaded with acetomethoxy-calcein at a final concentration of 5 μM for 2 hours at room temperature. Cells were washed three times to remove the extracellular dye and then 100 μL of the suspension was transferred to FIA black 96-well plates. NCR peptides were then added at a concentration of 50 mg/L, and the release of calcein (formed by the cells' esterases) was measured by its fluorescence in a microtiter plate reader (FLUOstar OPTIMA) at excitation and emission wavelengths of 485 nm and 530 nm, respectively. Calcein efflux was calculated as previously reported.

[2] = tested on: C. albicans strains WO-1 and Sc 5314; experiment: Microdilution antifungal assay, summary for C. albicans; format: cell-based, Candida albicans; conditions: strains WO-1 and Sc 5314, LSM medium, microdilution plate assay
Description: (§1) The antifungal activity of the NCR peptides against C. albicans strains and other Candida species was determined in vitro using 96-well flat bottom microtiter plates (Sarstedt). Fifty microliters of dilutions from each peptide (final concentrations in the assays ranged from 2.5 to 100 μg/mL) was added to 50 μL of 10^4 cells mL^−1 and 10^5 cells mL^−1 in LSM. The plates were incubated at 30°C and the peptide concentrations that prevented the germination of yeast cells were determined by microscopic analysis and measurement of absorbance at 600 nm with a microtiter plate reader (FLUOstar OPTIMA; BMG Labtech) after 24 and 48 hours. Minimal inhibitory concentration (MIC) was determined as the lowest concentration of the peptide at which there was no visible and measurable growth after 24 hours of incubation. To determine whether the antifungal effect was fungistatic or fungicidal, 10 μL from each treatment was dropped onto solid YPD plate after 3 and 24 hours. Plates were incubated at 30°C for 48 hours and developing colonies were observed. Minimal fungicidal concentration (MFC) was defined where no fungal growth could be observed.

[3] = tested on: PK E6/E7 vaginal epithelial cells; experiment: MTT assay, cytotoxicity on human epithelial cells; format: cell-based; conditions: peptide in PBgluc 3 hours at 37°C, 24 hours regeneration in CKM, MTT 4 hours, 560 nm
Description: The immortalized human vaginal epithelial cell line PK E6/E7 [15] was cultured in serum-free CKM supplemented with 0.005 μg/mL recombinant epidermal growth factor, 50 μg/mL bovine pituitary extract, L-glutamine, and antibiotic/antimycotic solution (Life Technologies) in a CO2 thermostat at 37°C [16]. Cells at 60–70% confluence were used in subsequent experiments.
MTT Assay. PK E6/E7 vaginal epithelial cells were seeded in the wells of a 96-well plate at a density of 1 × 10^4 cells per well in a final volume of 100 μL. CKM was then aspirated and 100 μL of the appropriate peptide diluted in PBgluc was added. After 3 hours of incubation at 37°C, the peptide solution was removed, and the cells were let to regenerate in CKM for 24 hours. Then 5 mg/mL 3-[4,5-dimethylthiazol-2-yl]-2,5-diphenyltetrazolium bromide (MTT) was added to each well and the plate was placed to 37°C for 4 hours. The amount of formazan formed by the activity of the mitochondrial succinate dehydrogenase of living cells was measured by using a microtiter plate reader (FLUOstar OPTIMA) at the wavelength of 560 nm.
10 μg/mL of primycin, a macrolide lactone antibiotic complex that rapidly kills PK cells, was used as a control for cytotoxicity in both assays.
(§2) MTT assays and impedance measurements were performed in at least four technical parallels and two biological replicates; all the data are presented as mean ± standard deviation. Significance was calculated with Newman-Keuls post hoc test using the GraphPad Prism version 5 for Windows and a probability (P) value of less than 0.05 was considered significant.

[4] = tested on: PK E6/E7 vaginal epithelial cells infected with C. albicans WO-1; experiment: Vaginal epithelial cell - C. albicans coculture (RTCA); format: cell-based, human; conditions: PK E6/E7 + C. albicans WO-1, MOI of 5, 3 hours coculture then peptide 3 hours in PBgluc at both 25 and 50 μg/mL, RTCA at 40 hours
Description: PK E6/E7 cells were seeded in 96-well E-plates as described above for RTCA. On the next day, an overnight culture of C. albicans WO-1 was diluted to OD = 1 and let to grow until OD = 1.5–2. The fungal cell suspension was diluted in antibiotic/antimycotic-free CKM and was added to the human cells with a multiplicity of infection (MOI) of 5. After 3 hours of coculture at 37°C, CKM medium was replaced with NCR peptides in PBgluc. After 3 hours of incubation, peptides were removed and 200 μL of fresh antibiotic/antimycotic-free CKM was added. Subsequent measurements were performed as described above.
as §2

[5] = tested on: C. albicans strain Sc5314; format: cell-based, Candida albicans; conditions: C. albicans Sc5314, LSM medium, 30°C, 24 hours of treatment, peptide 2.5 to 100 μg/mL, microscopy and absorbance at 600 nm; mean (±spread)
Description: (§3) The C. albicans strains WO-1 and Sc5314 were maintained on YPD medium (1% (w/v) yeast extract, 2% (w/v) peptone, 2% (w/v) dextrose, 2% (w/v) agar; Beckton, Dickinson and Company). Hyphal growth was induced in complete keratinocyte medium (CKM; Life Technologies) without serum. The effect of the NCR peptides on free-living fungi was investigated either in PBgluc buffer (1 mM KH2PO4, 3 mM Na2HPO4 × 7H2O, 5% glucose, pH = 7.0) or in low-salt fungal medium (LSM) composed of 5 mM K2HPO4, 100 μM MgSO4, 10 μM FeCl, 0.2 μM CoCl2, 0.2 μM CuSO4, 4 μM Na2MoO4, 1 μM H3BO3, 0.2 μM KI, 1 μM ZnSO4, 0.2 μM MnSO4, 2% glucose, 0.2% asparagine, 40 μg/mL methionine, 4 μg/mL myo-inositol, 0.4 μg/mL biotin, 2 μg/mL thiamine-HCl, and 0.4 μg/mL pyridoxine-HCl.
as §1

C. albicans strain WO-1 = format: cell-based, Candida albicans; conditions: C. albicans WO-1, LSM medium, 30°C, 24 hours of treatment, peptide 2.5 to 100 μg/mL, microscopy and absorbance at 600 nm; mean (±spread)
Description: as §3, §1

C. albicans WO-1 = format: cell-based, Candida albicans; conditions: 10 μL dropped onto solid YPD, 30°C for 48 hours, mean (±spread); for Minimal fungicidal concentration, 3 h: C. albicans WO-1, 3 hours of treatment; for Minimal fungicidal concentration, 24 h: C. albicans WO-1, 24 hours of treatment
Description: as §1

C. albicans WO-1 cells [6] = experiment: Localization of FITC-labeled peptides (confocal microscopy); format: cell-based, Candida albicans; conditions: 5 μg/mL (sublethal), 3 hours at 30°C in LSM
Description: C. albicans WO-1 cells were labeled with 5 μg/mL of the FM4-64 membrane stain (Life Technologies) and 0.5 μg/mL of the DNA stain 4′,6-diamidino-2-phenylindole (DAPI, Sigma) for 15 minutes after 2 hours of peptide treatment. Images were captured with an Axio Observer Z.1 (Zeiss) fluorescent microscope. For studying the interaction of peptides with the fungus, an overnight C. albicans WO-1 culture was diluted in LSM and treated with FITC-conjugated peptides (at the sublethal concentration of 5 μg/mL) for 3 hours at 30°C. Cells were then centrifuged for 4 minutes at 600 rpm and the unbound peptides were removed by gentle pipetting of the supernatant and cells were resuspended in LSM. The cell suspension was dropped onto a coverslip and images were taken with an Olympus FluoView FV1000 confocal laser-scanning microscope.

Compound | Calcein (dye) efflux (C. albicans WO-1 cells [1]) | Anticandidal activity against the yeast form of growing C. albicans [2] | Concentration that provoked cell death / toxicity [3] [µg/mL] | Prevention of C. albicans induced epithelial cell death [4] | Minimal inhibitory concentration, Sc5314 [5] | Minimal inhibitory concentration, WO-1 (C. albicans strain WO-1) | Minimal fungicidal concentration, 3 h (C. albicans WO-1) | Minimal fungicidal concentration, 24 h (C. albicans WO-1) | Localization of FITC-labeled peptide in C. albicans cells (C. albicans WO-1 cells [6])
CSCC[C@H](NC(=O)[C@H](CCCCN)NC(=O)[C@H](CCCNC(=N)N)NC(=O)[C@@H]1CCCN1C(=O)[C@H](CS)NC(=O)[C@H](Cc1c[nH]cn1)NC(=O)CNC(=O)[C@@H](NC(=O)[C@H](Cc1c[nH]cn1)NC(=O)[C@H](CCCCN)NC(=O)[C@H](CS)NC(=O)CNC(=O)[C@H](CC(N)=O)NC(=O)[C@H](CCCCN)NC(=O)[C@@H](N)CCSC)[C@@H](C)O)C(=O)N[C@@H](CS)C(=O)NCC(=O)N[C@@H](C)C(=O)N[C@@H](CCCCN)C(=O)N[C@H](C(=O)N[C@H](C(=O)N[C@@H](CCCCN)C(=O)N[C@@H](CS)C(=O)N[C@@H](CCCNC(=N)N)C(=O)N[C@@H](CC(N)=O)C(=O)N[C@@H](CC(N)=O)C(=O)N[C@@H](CCCCN)C(=O)N[C@@H](CS)C(=O)N[C@@H](CCC(N)=O)C(=O)N[C@@H](CS)C(=O)N[C@H](C(=O)N[C@@H](CCC(N)=O)C(=O)N[C@@H](CC(C)C)C(=O)O)C(C)C)[C@@H](C)O)[C@@H](C)O [NCR192] (H-MKNGCKHTGHCPRKMCGAKTTKCRNNKCQCVQL-OH; N-terminus and C-terminus assumed) | 22.82 ± 11.16% | exhibited anticandidal activity | 100 | could be prevented | – | – | – | – | –
CC[C@H](C)[C@H](NC(=O)[C@H](CS)NC(=O)CNC(=O)[C@H](CC(N)=O)NC(=O)[C@@H](N)CCCNC(=N)N)C(=O)N[C@H](C(=O)N[C@@H](CC(=O)O)C(=O)N1CCC[C@H]1C(=O)N[C@@H](CCCNC(=N)N)C(=O)N[C@@H](CS)C(=O)N1CCC[C@H]1C(=O)N[C@@H](Cc1ccc(O)cc1)C(=O)N[C@@H](CCC(N)=O)C(=O)N[C@@H](CCC(N)=O)C(=O)N[C@@H](CS)C(=O)N[C@@H](CCCNC(=N)N)C(=O)N[C@@H](CCCNC(=N)N)C(=O)N1CCC[C@H]1C(=O)N[C@@H](CC(C)C)C(=O)N[C@@H](Cc1ccc(O)cc1)C(=O)N[C@@H](CS)C(=O)N[C@@H](CCCNC(=N)N)C(=O)N[C@@H](CCCNC(=N)N)C(=O)N[C@@H](CCCNC(=N)N)C(=O)O)C(C)C [NCR247] (H-RNGCIVDPRCPYQQCRRPLYCRRR-OH; N-terminus and C-terminus assumed) | 29.65 ± 12.6% | exhibited anticandidal activity | 100 | could be prevented | 25 (±2) μg/mL | 14 (±9) μg/mL | 14 (±10) μg/mL | 16.5 (±13) μg/mL | –
EDIGHIKYCGIVDDCYKSKKPLFKIWKCVENVCVLWYK [NCR169] | no calcein release | – | 100 | unable to prevent vaginal epithelial cell death | – | – | – | – | –
RLNTTFRPLNFKMLRFWGQNRNIMKHRGQKVHFSLILSDCKTNKDCPKLRRANVRCRKSYCVPI [NCR335, cationic chemically synthesized mature NCR peptide of Medicago truncatula] | 43.12 ± 13.05% | exhibited anticandidal activity | > 25 | could be prevented | 12.5 (±2.5) μg/mL | 11 (±1) μg/mL | 7 (±1) μg/mL | 8 (±2) μg/mL | –
SFLGTFISSCKRDKDCPKLYGANFRCRKGTCVPPI [NCR035, chemically synthesized mature nodule-specific cysteine-rich (NCR) peptide of Medicago truncatula] | – | – | – | – | – | – | – | – | did not label the C. albicans cells
VNDCIRIHCKDDFDCIENRLQVGCRLQREKPRCVNLVCRCLRR [NCR055, chemically synthesized mature nodule-specific cysteine-rich (NCR) peptide of Medicago truncatula] | – | – | – | – | 50 (±3) μg/mL | 50 (±4) μg/mL | – | – | –
